Patent US8084399B2, “Process for screening of a binding amphiphilic peptides specific for hairpin RNA” (priority 2009, dated 2011)
Where no end group is shown, it is not given here. [ ]: non-standard residue; d: D form. Orn = NCCC[C@H](N)C(=O)O; Dap = NC[C@H](N)C(=O)O

Tests used:
[1] = test system: IRES domain IV hairpin; assay: Fluorescence anisotropy competition with Rev-N-rhodamine probe, binding to IRES hairpin; design: species or system HCV; settings: for differentiation coefficient (IRES): (mean Kd to other hairpin RNA)/(Kd to one hairpin RNA); for Kd: fluorescence anisotropy, 20° C., pH 7.4, read-out: Dissociation constant, IRES
Method in brief: (§1)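 Competitive fluorescence anisotropy at 20° C in 20 mM HEPES pH 7.4, 140 mM NaCl, 5 mM KCl, 1 mM MgCl2. Heat-refolded target RNA bound to 10 nM Rev-N-rhodamine probe; peptide titrated until anisotropy returned to baseline, and Kd fitted from a competition binding equation.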

[2] = Circular dichroism (CD), percentage of alpha-helix; format: physicochemical; settings: CD at 20° C., condition not given; for Alpha-helical rate (%), second value of pair: value after the slash; for Alpha-helical rate (%), first value of pair: value before the slash
Method in brief: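 Spectra recorded at 20 °C, 190–250 nm, three averaged scans, background-corrected and converted to mean residue ellipticity. Helix fraction derived from [θ] at 222 nm relative to full-helix and random-coil reference values, which depend on residue number and temperature.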

[3] = test system: IRES RNA; assay: Tryptophan fluorescence strength on addition of target RNA; format: binding, HCV
Experimental: Fluorescence strength was measured to investigate target RNA binding of the third generation peptides. When tryptophan is activated by 285 nm light, it becomes fluorescent at the wavelength. Changes of fluorescence resulted from the binding respectively to different targets such as IRES, RRE, TAR and 16S A-site RNA, were measured. 0.02 equivalent of target RNA was added slowly to 1 uM peptide solution containing tryptophan.

[4] = biological target: TAR hairpin RNA; assay: Fluorescence anisotropy competition with Rev-N-rhodamine probe, binding to TAR hairpin RNA; design: species or system HIV; settings: fluorescence anisotropy, 20° C., pH 7.4; read-out: Dissociation constant, TAR
Method in brief: as §1

[5] = biological target: RRE hairpin RNA; assay: Fluorescence anisotropy competition with Rev-N-rhodamine probe, binding to RRE hairpin RNA; design: species or system HIV; settings: 20° C., pH 7.4, read-out: Dissociation constant, RRE
Method in brief: as §1

[6] = biological target: 16S ribosomal RNA A-site; assay: Fluorescence anisotropy competition with Rev-N-rhodamine probe, binding to 16S A-site; settings: 20° C., pH 7.4, read-out: Dissociation constant, 16S A-site
Method in brief: as §1

[7] = test system: IRES RNA; assay: Solid surface method (biotin peptide on streptavidin plate, isotope-labeled RNA) with or without tRNAmix; format: binding, HCV; settings: comparison with/without tRNAmix, in words
Experimental: Solid surface method was performed to investigate specificity to target RNA of the third generation peptides. Particularly, biotin was conjugated to N-terminal of the peptide, resulting in the preparation for streptavidin binding. 5′-end of target RNA was labeled with an isotope. Streptavidin coated plate was prepared, to which the amphiphilic peptide was adhered at different concentrations. The plate was reacted with a certain amount of the isotope-labeled RNA, followed by washing. Only the RNA conjugated with the amphiphilic peptide was obtained. IC50 was calculated based on the concentration of the target RNA. Experiments were performed in the presence and in the absence of tRNA^mix (Sigma-Aldrich, Germany), and the results were compared.

| Substance | differentiation coefficient (IRES) [1] | binding strength to IRES, in words ([1]; compared with the original peptide) | Kd [1] | Alpha-helical rate (%), second value of pair [2] | Alpha-helical rate (%), first value of pair [2] | Fluorescence strength of tryptophan reduced by ([3]; wavelength moved to shorter site, IRES) | Kd [4] | Kd [5] | Kd [6] | IC50 to IRES RNA in the presence or in the absence of tRNAmix [7] | Fluorescence strength of tryptophan at #7 reduced from that of tryptophan at #14 of peptide 3h ([3]; in the presence of IRES) |
| --- | --- | --- | --- | --- | --- | --- | --- | --- | --- | --- | --- |
| LKKLLKLLKKLLKWAG [2u, tryptophan scanned second generation peptide] | 14 | significantly increased | 0.69 nM | 52% | 20% | 1.6 fold | 7.8 nM | 18 nM | 3.3 nM | – | – |
| LKKLLKWLOrnKLLDapLAG (LKKLLKWL[Orn]KLL[Dap]LAG-NH2; N-terminus assumed; SMILES CC(C)C[C@H](NC(=O)[C@H](CN)NC(=O)[C@H](CC(C)C)NC(=O)[C@H](CC(C)C)NC(=O)[C@H](CCCCN)NC(=O)[C@H](CCCN)NC(=O)[C@H](CC(C)C)NC(=O)[C@H](Cc1c[nH]c2ccccc12)NC(=O)[C@H](CCCCN)NC(=O)[C@H](CC(C)C)NC(=O)[C@H](CC(C)C)NC(=O)[C@H](CCCCN)NC(=O)[C@H](CCCCN)NC(=O)[C@@H](N)CC(C)C)C(=O)N[C@@H](C)C(=O)NCC(N)=O) [peptide 3d, third generation peptide, both faces modified] | 45 | – | 0.55 nM | 38% | 32% | – | 24 nM | 26 nM | 25 nM | not much different | 2.3 fold |
| LKKLLKLLOrnKLLKWAG (LKKLLKLL[Orn]KLLKWAG-NH2; N-terminus assumed; SMILES CC(C)C[C@H](NC(=O)[C@H](CC(C)C)NC(=O)[C@H](CCCCN)NC(=O)[C@H](CCCN)NC(=O)[C@H](CC(C)C)NC(=O)[C@H](CC(C)C)NC(=O)[C@H](CCCCN)NC(=O)[C@H](CC(C)C)NC(=O)[C@H](CC(C)C)NC(=O)[C@H](CCCCN)NC(=O)[C@H](CCCCN)NC(=O)[C@@H](N)CC(C)C)C(=O)N[C@@H](CCCCN)C(=O)N[C@@H](Cc1c[nH]c2ccccc12)C(=O)N[C@@H](C)C(=O)NCC(N)=O) [3f, third generation peptide, both faces modified] | 1.0 | – | 6.1 nM | 58% | 36% | – | 4.7 nM | 3.6 nM | 10 nM | – | – |
